In ChEMBL document CHEMBL3259558, “Identification of amides derived from 1H-pyrazolo[3,4-b]pyridine-5-carboxylic acid as potent inhibitors of human nicotinamide phosphoribosyltransferase (NAMPT)” (Bioorg Med Chem Lett, 2013):
Values after ≈ are worked out from the molar mass of the structure shown. Active and inactive are the calls of the source. The calls are words filed in the database; no cut-off is given here.

Key:
[1] = molecular target: Nicotinamide phosphoribosyltransferase (Homo sapiens, UniProt P43490); assay: Inhibition of C-terminal His-6-tagged full length human NAMPT expressed in Escherichia coli (DE3) cells after 30 mins by mass spectrometry-based analysis
Chain of Nicotinamide phosphoribosyltransferase (Homo sapiens, UniProt P43490) (P43490 whole entry): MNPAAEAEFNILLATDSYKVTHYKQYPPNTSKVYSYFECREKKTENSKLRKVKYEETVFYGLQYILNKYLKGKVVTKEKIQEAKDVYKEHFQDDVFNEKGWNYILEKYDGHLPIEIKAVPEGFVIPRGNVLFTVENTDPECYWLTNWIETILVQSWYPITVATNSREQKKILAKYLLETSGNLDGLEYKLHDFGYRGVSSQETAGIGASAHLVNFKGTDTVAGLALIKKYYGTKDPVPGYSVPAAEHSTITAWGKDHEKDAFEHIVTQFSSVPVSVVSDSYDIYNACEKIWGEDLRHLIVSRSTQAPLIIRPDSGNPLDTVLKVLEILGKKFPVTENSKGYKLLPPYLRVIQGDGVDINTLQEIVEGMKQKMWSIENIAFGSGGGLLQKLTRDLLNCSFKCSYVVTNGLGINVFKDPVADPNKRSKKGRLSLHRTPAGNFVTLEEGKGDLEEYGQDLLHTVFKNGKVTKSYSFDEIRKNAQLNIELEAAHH

A2780 [2] = assay: Antiproliferative activity against human A2780 cells assessed as cell viability after 72 hrs by SRB assay; type: functional, cell-based; settings: A2780, 72 h
A2780 [3] = assay: Antiproliferative activity against human A2780 cells assessed as cell viability after 72 hrs by SRB assay in presence of nitotinamide mononucleotide; type: functional, cell-based
[4] = Apparent permeability from apical to basolateral side in MDCK cells at 10 uM by LC-MS/MS analysis; type: ADME, cell-based, Canis lupus familiaris; settings: dog
[5] = Fraction unbound in mouse plasma at 5 uM by LC-MS/MS analysis; type: ADME, cell-free
[6] = Aqueous solubility of the compound in PBS at pH 7.2 by LC/CLND analysis; type: physicochemical
[7] = Drug uptake in Sprague-Dawley rat retina at 30 mg/kg, po qd for 2 days measured 1 hr after last dose in presence of nicotinic acid; type: ADME, organism-based; parameters: dose 30 mg/kg, route oral; settings: read-out: Drug uptake
[8] = Drug uptake in Sprague-Dawley rat retina at 30 mg/kg, po qd for 2 days measured 6.5 hrs after last dose in presence of nicotinic acid; type: ADME, organism-based; parameters: dose 30 mg/kg, route oral; settings: read-out: Drug uptake
[9] = Ratio of drug level in retina to plasma of Sprague-Dawley rat at 30 mg/kg, po qd for 2 days measured 1 hr after last dose in presence of nicotinic acid
[10] = Ratio of drug level in retina to plasma of Sprague-Dawley rat at 30 mg/kg, po qd for 2 days measured 6.5 hrs after last dose in presence of nicotinic acid
[11] = molecular target: T1, Nicotinamide phosphoribosyltransferase (Mus musculus, UniProt Q99KQ4); assay: Inhibition of mouse NAMPT after 30 mins by mass spectrometry-based analysis
T1 sequence (Q99KQ4 whole entry): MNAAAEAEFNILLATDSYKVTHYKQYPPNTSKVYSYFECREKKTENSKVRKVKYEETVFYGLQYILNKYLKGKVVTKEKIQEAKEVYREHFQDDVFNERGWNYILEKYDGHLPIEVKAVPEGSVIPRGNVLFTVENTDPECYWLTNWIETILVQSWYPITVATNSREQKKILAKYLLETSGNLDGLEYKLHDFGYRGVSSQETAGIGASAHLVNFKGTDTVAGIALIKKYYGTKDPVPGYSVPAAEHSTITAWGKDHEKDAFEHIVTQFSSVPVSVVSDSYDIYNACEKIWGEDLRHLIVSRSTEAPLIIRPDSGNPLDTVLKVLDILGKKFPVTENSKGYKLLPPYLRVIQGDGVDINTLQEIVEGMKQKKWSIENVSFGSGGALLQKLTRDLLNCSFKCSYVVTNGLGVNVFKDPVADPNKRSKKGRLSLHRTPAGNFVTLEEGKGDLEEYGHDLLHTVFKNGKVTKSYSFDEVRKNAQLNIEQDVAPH

[12] = molecular target: Nicotinamide phosphoribosyltransferase (Rattus norvegicus, UniProt Q80Z29); assay: Inhibition of rat NAMPT after 30 mins by mass spectrometry-based analysis
Chain of Nicotinamide phosphoribosyltransferase (Rattus norvegicus, UniProt Q80Z29) (Q80Z29 whole entry): as the sequence (Q99KQ4 whole entry) above, with T335S, N439T, I484M counted along it

[13] = Cellular uptake in mouse KPP cells at 1000 nM; type: ADME, cell-based; settings: 1 µM
[14] = Cellular uptake in mouse KPP cells at 200 nM; type: ADME, cell-based; settings: 0.2 µM
PC-3 [15] = assay: Cellular uptake in human PC3 cells at 1000 nM; type: ADME, cell-based; settings: pc-3, 1 µM
[16] = molecular target: T1, Nicotinamide phosphoribosyltransferase; assay: Inhibition of NAMPT in mouse cells assessed as reduction in NAD level after 48 hrs by mass spectrometry; type: cell-based
PC-3 [17] = assay: Cellular uptake in human PC3 cells at 200 nM; type: ADME, cell-based; settings: pc-3, 0.2 µM
[18] = Cytotoxicity against rhesus monkey RF/6A cells assessed as cell viability after 96 hrs by CyQuant staining-based assay; settings: Macaca mulatta
[19] = Inhibition of C-terminal His-6-tagged dog NAMPT expressed in Escherichia coli (DE3)-RIL cells after 30 mins by mass spectrometry-based analysis; parameters: species or system Canis lupus familiaris
[20] = Inhibition of C-terminal His-6-tagged cynomolgus monkey NAMPT expressed in Escherichia coli (DE3)-RIL cells after 30 mins by mass spectrometry-based analysis; parameters: species or system Macaca fascicularis
[21] = Antiproliferative activity against human HT1080 cells assessed as cell viability after 96 hrs by CyQuant staining-based assay; type: functional; settings: HT-1080, 96 h
PC-3 [22] = assay: Antiproliferative activity against human PC3 cells assessed as cell viability after 96 hrs by CyQuant staining-based assay; type: functional; settings: PC-3, 96 h
[23] = Antiproliferative activity against human MIAPaCa2 cells assessed as cell viability after 96 hrs by CyQuant staining-based assay; type: functional; settings: MIA PaCa-2, 96 h
[24] = Antiproliferative activity against mouse KPP cells assessed as cell viability after 96 hrs by CyQuant staining-based assay; type: functional
[25] = Antiproliferative activity against mouse KPR cells assessed as cell viability after 96 hrs by CyQuant staining-based assay; type: functional
[26] = Antiproliferative activity against mouse B16F10 cells assessed as cell viability after 96 hrs by CyQuant staining-based assay; type: functional; settings: B16-F10, 96 h
[27] = Antiproliferative activity against dog A72 cells assessed as cell viability after 96 hrs by CyQuant staining-based assay; type: functional; settings: Canis lupus familiaris, A-72, 96 h
[28] = Antiproliferative activity against dog D17 cells assessed as cell viability after 96 hrs by CyQuant staining-based assay; type: functional; settings: Canis lupus familiaris, D17, 96 h
[29] = Antiproliferative activity against dog DH82 cells assessed as cell viability after 96 hrs by CyQuant staining-based assay; type: functional; settings: Canis lupus familiaris, DH82, 96 h
[30] = Cytotoxicity against African green monkey COS7 cells assessed as cell viability after 96 hrs by CyQuant staining-based assay; settings: Chlorocebus aethiops, COS-7, 96 h
[31] = Dissociation constant, pKa of the compound; type: physicochemical
[32] = Octanol-PBS buffer distribution coefficient, log D of the compound at pH 7.4 by shake flask method; type: physicochemical

In the case of `O=C(NCc1ccc(S(=O)(=O)N2CCC(O)CC2)cc1)c1cnc2[nH]ncc2c1`, the IC50 [1] is reported as 410 nM, the IC50 (A2780 [2]) is reported as 210 nM and the inhibition (A2780 [3]) is reported as “inactive”.
In the case of `CCn1cc(S(=O)(=O)c2ccc(CNC(=O)c3cnc4[nH]ncc4c3)cc2)cn1`, the IC50 [1] is reported as 190 nM, the IC50 (A2780 [2]) is reported as 31 nM and the inhibition (A2780 [3]) is reported as “inactive”.
In the case of `O=C(NCc1ccc(S(=O)(=O)N2CCC(N3CCCC3)CC2)cc1)c1cnc2[nH]ncc2c1`, the IC50 (A2780 [2]) is reported as 35 nM and the inhibition (A2780 [3]) is reported as “inactive”.
With `CCCn1cc(S(=O)(=O)c2ccc(CNC(=O)c3cnc4[nH]ncc4c3)cc2)cn1` the IC50 [1] was 10 nM, the IC50 (A2780 [2]) was 6.9 nM and the Papp A→B at 10 µM [4] was 1.9 ×10⁻⁶ cm/s. The fraction unbound at 5 µM [5] was 0.071, the solubility [6] was 8.8 µM (≈ 3.74 µg/mL) and the inhibition (A2780 [3]) was “inactive”.
With `NC1CCN(S(=O)(=O)c2ccc(CNC(=O)c3cnc4[nH]ncc4c3)cc2)CC1` the IC50 [1] was 390 nM, the IC50 (A2780 [2]) was 330 nM and the inhibition (A2780 [3]) was “inactive”.
With `O=C(NCc1ccc(S(=O)(=O)c2ccccc2)cc1)c1ccc2nccn2c1` the inhibition (A2780 [3]) was “inactive”.
For `O=C(NCc1ccc(S(=O)(=O)N2CCOCC2)cc1)c1cnc2[nH]ncc2c1`, the IC50 [1] was 370 nM, the IC50 (A2780 [2]) was 280 nM and the inhibition (A2780 [3]) was “inactive”.
With `N#CC1CCN(S(=O)(=O)c2ccc(CNC(=O)c3cnc4[nH]ncc4c3)cc2)CC1` the IC50 [1] was 410 nM, the IC50 (A2780 [2]) was greater than 2000 nM and the inhibition (A2780 [3]) was “inactive”.
`O=C(NCc1ccc(S(=O)(=O)c2cncc(C(F)(F)F)c2)cc1)c1cnc2[nH]ncc2c1` gave an IC50 [1] of 10 nM, an IC50 (A2780 [2]) of 4.5 nM and a Papp A→B at 10 µM [4] of 4.4 ×10⁻⁶ cm/s. The fraction unbound at 5 µM [5] was 0.05, the solubility [6] was less than 1 µM and the inhibition (A2780 [3]) was “inactive”.
With `O=C(NCc1ccc(S(=O)(=O)c2cccc(OC(F)(F)F)c2)cc1)c1cnc2[nH]ncc2c1` the IC50 [1] was 7.7 nM, the IC50 (A2780 [2]) was 4.8 nM and the Papp A→B at 10 µM [4] was 4 ×10⁻⁶ cm/s. For the same compound, the fraction unbound at 5 µM [5] was 0.008, the solubility [6] was less than 1 µM and the inhibition (A2780 [3]) was “inactive”.
For `O=C(NCc1ccc(S(=O)(=O)c2cncc(Cl)c2)cc1)c1cnc2[nH]ncc2c1`, the IC50 [1] was 11 nM, the IC50 (A2780 [2]) was 2.4 nM and the Papp A→B at 10 µM [4] was 2.5 ×10⁻⁶ cm/s. The fraction unbound at 5 µM [5] was 0.074, the solubility [6] was less than 1 µM and the inhibition (A2780 [3]) was “inactive”.
In the case of `O=C(NCc1ccc(S(=O)(=O)c2cc(F)cc(F)c2)cc1)c1ccc2nccn2c1`, the concentration at 1 h [7] is reported as 1900 nM, the concentration at 6.5 h [8] is reported as 1300 nM and the Kp at 1 h [9] is reported as 0.32. It also gave a Kp at 6.5 h [10] of 0.3, an IC50 [11] of 24 nM and an IC50 [12] of 23 nM. For the same compound, the Drug uptake [13] was 31 nM, the Drug uptake [14] was 8 nM and the Drug uptake (PC-3 [15]) was 30 nM. For the same compound, the EC50 [16] was 1.3 nM, the Drug uptake (PC-3 [17]) was 9 nM and the IC50 [18] was 4 nM. The IC50 [19] was 7 nM, the IC50 [20] was 42 nM and the IC50 [21] was 2 nM. The IC50 (PC-3 [22]) was 3 nM, the IC50 [23] was 7 nM and the IC50 [24] was 16 nM. The IC50 [25] was 41 nM, the IC50 [26] was 71 nM and the IC50 [27] was 4 nM. It also gave an IC50 [28] of 12 nM, an IC50 [29] of 7 nM and an IC50 [30] of 9 nM. It also gave a pKa [31] of 5.3 and a logD [32] of 3.2.
For `O=C(NCc1ccc(S(=O)(=O)c2cnc3ccccc3c2)cc1)c1cnc2[nH]ncc2c1`, the IC50 [1] was 8.2 nM, the IC50 (A2780 [2]) was 2.2 nM and the Papp A→B at 10 µM [4] was 1.6 ×10⁻⁶ cm/s. The fraction unbound at 5 µM [5] was 0.009, the solubility [6] was less than 1 µM and the inhibition (A2780 [3]) was “inactive”.
For `O=C(NCc1ccc(S(=O)(=O)c2ccccc2)cc1)c1cnc2[nH]ccc2c1`, the IC50 (A2780 [2]) was greater than 2000 nM and the inhibition (A2780 [3]) was “inactive”.
For `O=C(NCc1ccc(S(=O)(=O)N2CCCCC2)cc1)c1ccc2[nH]ncc2c1`, the IC50 [1] was greater than 2000 nM, the IC50 (A2780 [2]) was greater than 2000 nM and the inhibition (A2780 [3]) was “inactive”.
With `O=C(NCc1ccc(S(=O)(=O)c2ccccc2)cc1)c1cnc2[nH]ncc2c1` the IC50 [1] was 54 nM, the IC50 (A2780 [2]) was 66 nM and the inhibition (A2780 [3]) was “inactive”.
In the case of `O=C(NCc1ccc(S(=O)(=O)c2ccccc2)cc1)c1cc2cn[nH]c2cn1`, the IC50 [1] is reported as greater than 2000 nM, the IC50 (A2780 [2]) is reported as greater than 2000 nM and the inhibition (A2780 [3]) is reported as “inactive”.
Compound `O=C(NCc1ccc(S(=O)(=O)c2ccc(N3CCOCC3)nc2)cc1)c1cnc2[nH]ncc2c1` has an IC50 [1] of 4.5 nM, an IC50 (A2780 [2]) of 1.3 nM and a Papp A→B at 10 µM [4] of 0.85 ×10⁻⁶ cm/s. For the same compound, the fraction unbound at 5 µM [5] was 0.019, the solubility [6] was less than 1 µM and the inhibition (A2780 [3]) was “inactive”.
For `Cn1ncc2cc(C(=O)NCc3ccc(S(=O)(=O)c4ccccc4)cc3)cnc21`, the IC50 [1] was 1700 nM, the IC50 (A2780 [2]) was greater than 2000 nM and the inhibition (A2780 [3]) was “inactive”.
With `O=C(NCc1ccc(S(=O)(=O)N2CCCCC2)cc1)c1ccc2nccn2c1` the inhibition (A2780 [3]) was “inactive”.
With `O=C(NCc1ccc(S(=O)(=O)N2CCCCC2)cc1)c1cnc2[nH]ncc2c1` the IC50 [1] was 100 nM, the IC50 (A2780 [2]) was 88 nM and the inhibition (A2780 [3]) was “inactive”.
With `COC1CCN(S(=O)(=O)c2ccc(CNC(=O)c3cnc4[nH]ncc4c3)cc2)CC1` the IC50 [1] was 400 nM, the IC50 (A2780 [2]) was 39 nM and the inhibition (A2780 [3]) was “inactive”.
`CN(C)c1ccc(S(=O)(=O)c2ccc(CNC(=O)c3cnc4[nH]ncc4c3)cc2)cn1` gave an IC50 [1] of 12 nM, an IC50 (A2780 [2]) of 3.2 nM and a Papp A→B at 10 µM [4] of 1.5 ×10⁻⁶ cm/s. The fraction unbound at 5 µM [5] was 0.018, the solubility [6] was less than 1 µM and the inhibition (A2780 [3]) was “inactive”.
For `O=C(NCc1ccc(S(=O)(=O)N2CCN(C3COC3)CC2)cc1)c1cnc2[nH]ncc2c1`, the IC50 [1] was 440 nM, the IC50 (A2780 [2]) was 45 nM and the inhibition (A2780 [3]) was “inactive”.
In the case of `O=C(NCc1ccc(S(=O)(=O)N2CC3(CCOCC3)C2)cc1)c1cnc2[nH]ncc2c1`, the IC50 [1] is reported as 110 nM, the IC50 (A2780 [2]) is reported as 45 nM and the inhibition (A2780 [3]) is reported as “inactive”.
In the case of `CC(C)n1cc(S(=O)(=O)c2ccc(CNC(=O)c3cnc4[nH]ncc4c3)cc2)cn1`, the IC50 [1] is reported as 99 nM, the IC50 (A2780 [2]) is reported as 12 nM and the inhibition (A2780 [3]) is reported as “inactive”.
With `O=C(NCc1ccc(S(=O)(=O)c2cc(F)cc(F)c2)cc1)c1cnc2[nH]ncc2c1` the IC50 (A2780 [2]) was 6 nM, the Papp A→B at 10 µM [4] was 7.8 ×10⁻⁶ cm/s and the fraction unbound at 5 µM [5] was 0.114. For the same compound, the solubility [6] was less than 1 µM and the inhibition (A2780 [3]) was “inactive”.
With `O=C(NCc1ccc(S(=O)(=O)c2ccccc2)cc1)c1ccc2[nH]ncc2n1` the IC50 [1] was 1300 nM, the IC50 (A2780 [2]) was greater than 2000 nM and the inhibition (A2780 [3]) was “inactive”.
